According to patent publication US9023889B2, “Use of ascorbic acid derivatives for the functionalization of matrices” (Merck Patent GmbH, priority 2006, dated 2015):

Key:
gelatine plates = assay: Evidence of bonding (skin model), gelatine plates; conditions: 24 hrs at 87% atmospheric humidity, eluted with iPrOH in ultrasound bath
Protocol: 4% solutions of a mixture of two isomers of 2-(3,4-dihydroxy-5-oxo-2,5-di-hydrofuran-2-yl)-2-hydroxyethyl 2-(4-diethylamino-2-hydroxybenzoyl)benzo-ate, prepared in accordance with Example 1 or 2, abbreviated to DHAB below, in various solvent systems are prepared. 40 µl of each of these are applied to 2.5×7.5 cm gelatine plates and stored at 87% atmospheric humidity for 24 hrs. The plates are then eluted with 50 ml of iPrOH in an ultrasound bath for 5 min. The bonding to the gelatine is carried out by comparison with a corresponding standard solution: […]

chicken skin = assay: Evidence of bonding to chicken skin; conditions: 2% in dimethylisosorbide, 2.66 μl/cm^2, exposure 16 hours, isopropanol extraction, photometric at 354 nm
Protocol: A) DHAB is dissolved to the extent of 2% in dimethylisosorbide. The solution is applied to chicken skin at an application rate of 2.66 μl/cm^2. After an exposure time of 16 hours, the samples are extracted with isopropanol in an ultrasound bath. The extracts are measured photometrically at 354 nm and compared with a 100% value (=application solution without use). The difference in the recovery compared with the 100% value corresponds here to the proportion of active compound bonded to the skin. For DHAB, a bound proportion of 76% is found, while the non-bonding comparative substance DHHB has, as expected, a low value of only 3%.

pig skin = assay: Evidence of bonding to pig skin; conditions: pig skin 24 h
Protocol: • 2% solution of DHAB in Arlasolve DMI sample (A) and Pelemol BIP sample (B) • formulation containing 1% of DHAB sample (C) [=54-07-5-A, from Example V] • 2% solution of DHHB in Arlasolve DMI sample (D) and isopropyl myristate sample (E) formulations containing 0.84% of DHHB sample (F) [=54-07-5-B from Example V] and 0.84% of DHHB+0.37% of vitamin C sample (G) [=54-07-5-C from Example V]. • pig skin is cut to 2.5×7.5 cm and placed on Plexiglas specimen slides. Procedure:
50 µl of each of samples (A) to (G) are dripped onto the specimen slides with pig skin, spread using a plastic spatula, and the specimen slides are stored in a desiccator [87% atmospheric humidity through sat. KCl solution] at room temperature for 24 h. The specimen slides are then rinsed with 50 ml of isopropanol into volumetric flasks, treated in an ultrasound bath for 5 min, clear-filtered via syringe filters (cloudiness due to detached skin constituents and measured by UV spectrometer (400-250 nm; UVmax˜355 nm) (residue 1 to 7). The 100% comparative value used are 50 ml isopropanol solutions of in each case 50 µl of samples (A) to (G), which are likewise measured by UV spectrometer.

Human hair samples = assay: Evidence of bonding to hair (SEM); conditions: 0.2% solution in ethanol/water=80/20, 8 h, rinsed; comparison with DHHB
Protocol: Human hair samples are stirred with a 0.2% ethanolic active-compound solution of DHAB or DHHB (ethanol/water=80/20) for 8 h, subsequently rinsed with ethanol/water=80/20 and sent for SEM measurement (SEM=scanning electron microscope).

prolyl-4-hydroxylase = conditions: cited from earlier work

CCN(CC)c1ccc(C(=O)c2ccccc2C(=O)OC[C@@H](O)[C@H]2OC(=O)C(O)=C2O)c(O)c1 [DHAB, (R)-2-((R)-3,4-dihydroxy-5-oxo-2,5-dihydrofuran-2-yl)-2-hydroxyethyl 2-(4-diethylamino-2-hydroxybenzoyl)benzoate]
Non-extractable content and therefore bonded to the skin (gelatine plates; 4% solution in EG/water 94/6 on gelatine plate): 97.0%
Non-extractable content and therefore bonded to the skin (gelatine plates; 4% solution in i-PrOH on gelatine plate): 12.5%
bound proportion (proportion of active compound bonded to the skin) (chicken skin): 76%
Bonding (non-extractable residue) (pig skin; 1% in W/O 54-07-5-A): 91%
Bonding (non-extractable residue) (pig skin; 2% in Arlasolve DMI): 97%
Bonding (non-extractable residue) (pig skin; 2% in Pelemol BIP): 89%
active-compound adduction onto the hair cuticles (SEM picture) (Human hair samples): clearly increasingly evident

CCCCCCOC(=O)c1ccccc1C(=O)c1ccc(N(CC)CC)cc1O [DHHB, hexyl 2-(4-diethylamino-2-hydroxybenzoyl)benzoate]
bound proportion (proportion of active compound bonded to the skin) (chicken skin): 3%
Bonding (non-extractable residue) (pig skin; 0.84% in W/O 54-07-5-B): 5%
Bonding (non-extractable residue) (pig skin; 2% in Arlasolve DMI): 0%
Bonding (non-extractable residue) (pig skin; 2% in isopropyl myristate): 2%

CC(=O)Oc1ccccc1C(=O)OC[C@H](OC(=O)c1ccccc1OC(C)=O)[C@H]1OC(=O)C(O)=C1O [O^5O^6-bis(2-acetoxybenzoyl) L-ascorbate]
supporting the activity of the enzyme prolyl-4-hydroxylase (prolyl-4-hydroxylase): capable of supporting the activity
affinity to the enzyme (prolyl-4-hydroxylase; compared with the monosubstituted compound): lower affinity

CC(=O)Oc1ccccc1C(=O)OC[C@H](O)[C@H]1OC(=O)C(O)=C1O [O^6-(2-acetoxybenzoyl) L-ascorbate]
supporting the activity of the enzyme prolyl-4-hydroxylase (prolyl-4-hydroxylase): capable of supporting the activity
